Measurements from patent publication US12655116B2, “Substituted isophthalic acid diamides” (Bayer Aktiengesellschaft, priority 2020, dated 2026).

Assays:
ABUTH [1] = assay: Pre-emergence herbicidal action against ABUTH; format: in vivo, Abutilon theophrasti; details: Abutilon theophrasti, 504 h; for pest or weed control at 80 g/ha: scored visually after 3 weeks vs untreated controls (100% = plants have died, 0% = like control plants)
Procedure, shortened: (§1)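 Sandy loam pots, seeds covered with soil, then surface-treated with WP or EC formulations at 600–800 l/ha water plus 0.2% wetting agent. Greenhouse, 3 weeks. Percent damage vs untreated controls.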

ALOMY [2] = assay: Pre-emergence herbicidal action against ALOMY; format: in vivo, Alopecurus myosuroides; details: Alopecurus myosuroides, 504 h; 80 g/ha, pre-emergence, scored visually after 3 weeks vs untreated controls (100% = plants have died, 0% = like control plants)
Procedure, shortened: as §1

AMARE [3] = assay: Pre-emergence herbicidal action against AMARE; format: in vivo, Amaranthus retroflexus; details: Amaranthus retroflexus, 504 h, scored visually after 3 weeks vs untreated controls, 100% = plants have died, 0% = like control plants
Procedure, shortened: as §1

AVEFA [4] = assay: Pre-emergence herbicidal action against AVEFA; format: in vivo, Avena fatua; details: Avena fatua, 504 h; 80 g/ha, pre-emergence
Procedure, shortened: as §1

ECHCG [5] = assay: Pre-emergence herbicidal action against ECHCG; format: in vivo, Echinochloa crus-galli; details: Echinochloa crus-galli, 504 h, 80 g/ha
Procedure, shortened: as §1

LOLRI = assay: Pre-emergence herbicidal action against LOLRI; format: in vivo, Lolium rigidum; details: Lolium rigidum, 504 h, 80 g/ha
Procedure, shortened: as §1

MATIN [6] = assay: Pre-emergence herbicidal action against MATIN; format: in vivo, Matricaria inodora; details: Tripleurospermum inodorum, 504 h; for pest or weed control at 20 g/ha: dosage 20 g/ha; for pest or weed control at 80 g/ha: dosage 80 g/ha
Procedure, shortened: as §1

PHBPU [7] = assay: Pre-emergence herbicidal action against PHBPU; format: in vivo, Pharbitis purpurea; details: Ipomoea purpurea, 504 h, dosage 80 g/ha
Procedure, shortened: as §1

POLCO = assay: Pre-emergence herbicidal action against POLCO; format: in vivo, Polygonum convolvulus; details: Fallopia convolvulus, 504 h, dosage 80 g/ha
Procedure, shortened: as §1

SETVI [8] = assay: Pre-emergence herbicidal action against SETVI; format: in vivo, Setaria viridis; details: Setaria viridis, 504 h; for pest or weed control at 80 g/ha: dosage 80 g/ha
Procedure, shortened: as §1

STEME [9] = assay: Pre-emergence herbicidal action against STEME; format: in vivo, Stellaria media; details: Stellaria media, 504 h; for pest or weed control at 20 g/ha: dosage 20 g/ha; for pest or weed control at 80 g/ha: dosage 80 g/ha
Procedure, shortened: as §1

VERPE [10] = assay: Pre-emergence herbicidal action against VERPE; format: in vivo, Veronica persica; details: Veronica persica, 504 h; for pest or weed control at 80 g/ha: dosage 80 g/ha
Procedure, shortened: as §1

VIOTR [11] = assay: Pre-emergence herbicidal action against VIOTR; format: in vivo, Viola tricolor; details: Viola tricolor, 504 h; for pest or weed control at 20 g/ha: dosage 20 g/ha; for pest or weed control at 80 g/ha: dosage 80 g/ha
Procedure, shortened: as §1

DIGSA [12] = assay: Pre-emergence herbicidal action against DIGSA; format: in vivo, Digitaria sanguinalis; details: Digitaria sanguinalis, 504 h; for pest or weed control at 20 g/ha: dosage 20 g/ha; for pest or weed control at 80 g/ha: dosage 80 g/ha
Procedure, shortened: as §1

ABUTH [13] = assay: Post-emergence herbicidal action against ABUTH; format: in vivo, Abutilon theophrasti; details: Abutilon theophrasti, 504 h, visual assessment about 3 weeks after treatment vs untreated controls; for pest or weed control at 5 g/ha: dosage 5 g/ha; for pest or weed control at 20 g/ha: dosage 20 g/ha
Procedure, shortened: (§2)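 Visual % rating (0% = as untreated, 100% = dead) ~3 wk after spraying one-leaf-stage plants grown in sandy loam; WP/EC in water at 600–800 l/ha, 0.2% wetting agent.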

ALOMY [14] = assay: Post-emergence herbicidal action against ALOMY; format: in vivo, Alopecurus myosuroides; details: Alopecurus myosuroides, 504 h, dosage 20 g/ha, visual assessment about 3 weeks after treatment vs untreated controls
Procedure, shortened: as §2

AMARE [15] = assay: Post-emergence herbicidal action against AMARE; format: in vivo, Amaranthus retroflexus; details: Amaranthus retroflexus, 504 h, 20 g/ha, visual assessment about 3 weeks after treatment, 100% = plants have died, 0% = like control plants
Procedure, shortened: as §2

ECHCG [16] = assay: Post-emergence herbicidal action against ECHCG; format: in vivo, Echinochloa crus-galli; details: Echinochloa crus-galli, 504 h; for pest or weed control at 20 g/ha: dosage 20 g/ha
Procedure, shortened: as §2

HORMU = assay: Post-emergence herbicidal action against HORMU; format: in vivo, Hordeum murinum; details: Hordeum murinum, 504 h, dosage 20 g/ha
Experimental: Seeds of monocotyledonous and dicotyledonous weed and crop plants are laid out in sandy loam soil in wood-fiber pots, covered with soil and cultivated in a greenhouse under good growth conditions. 2 to 3 weeks after sowing, the test plants are treated at the one-leaf stage. The compounds of the invention, formulated in the form of wettable powders (WP) or as emulsion concentrates (EC), are then sprayed onto the green parts of the plants in the form of an aqueous suspension or emulsion at a water application rate equivalent to 600 to 800 l/ha, with addition of 0.2% wetting agent. After the test plants have been left to stand in the greenhouse under optimal growth conditions for about 3 weeks, the action of the preparations is assessed visually in comparison to untreated controls (herbicidal action in percent (%): 100% activity=the plants have died, 0% activity=like control plants). […] The tables below illustrate, in an illustrative manner, the post-emergence herbicidal action of the compounds of the invention, the herbicidal activity being stated in percent.

MATIN [17] = assay: Post-emergence herbicidal action against MATIN; format: in vivo, Matricaria inodora; details: Tripleurospermum inodorum, 504 h, dosage 20 g/ha
Procedure, shortened: as §2

PHBPU [18] = assay: Post-emergence herbicidal action against PHBPU; format: in vivo, Pharbitis purpurea; details: Ipomoea purpurea, 504 h; for pest or weed control at 20 g/ha: dosage 20 g/ha
Procedure, shortened: as §2

SETVI [19] = assay: Post-emergence herbicidal action against SETVI; format: in vivo, Setaria viridis; details: Setaria viridis, 504 h; for pest or weed control at 20 g/ha: dosage 20 g/ha
Procedure, shortened: as §2

STEME [20] = assay: Post-emergence herbicidal action against STEME; format: in vivo, Stellaria media; details: Stellaria media, 504 h; for pest or weed control at 5 g/ha: dosage 5 g/ha
Procedure, shortened: as §2

VERPE [21] = assay: Post-emergence herbicidal action against VERPE; format: in vivo, Veronica persica; details: Veronica persica, 504 h
Procedure, shortened: as §2

VIOTR [22] = assay: Post-emergence herbicidal action against VIOTR; format: in vivo, Viola tricolor; details: Viola tricolor, 504 h
Procedure, shortened: as §2

DIGSA [23] = assay: Post-emergence herbicidal action against DIGSA; format: in vivo, Digitaria sanguinalis; details: Digitaria sanguinalis, 504 h
Procedure, shortened: as §2

AVEFA [24] = assay: Post-emergence herbicidal action against AVEFA; format: in vivo, Avena fatua; details: Avena fatua, 504 h, 20 g/ha, visual assessment about 3 weeks after treatment, 100% = plants have died, 0% = like control plants
Procedure, shortened: as §2

SMILES: CNC(=O)c1c(C(F)(F)F)ccc(C(=O)Nc2nnnn2C)c1C [Example 1-25]
- pest or weed control at 80 g/ha (ABUTH [1]): 100%
- pest or weed control at 80 g/ha (ALOMY [2]): 90%
- pest or weed control at 20 g/ha (AMARE [3]): 100%
- pest or weed control at 80 g/ha (AMARE [3]): 100%
- pest or weed control at 80 g/ha (AVEFA [4]): 90%
- pest or weed control at 80 g/ha (ECHCG [5]): 100%
- pest or weed control at 80 g/ha (LOLRI): 80%
- pest or weed control at 20 g/ha (MATIN [6]): 90%
- pest or weed control at 80 g/ha (MATIN [6]): 100%
- pest or weed control at 80 g/ha (PHBPU [7]): 90%
- pest or weed control at 80 g/ha (POLCO): 80%
- pest or weed control at 20 g/ha (SETVI [8]; dosage 20 g/ha): 80%
- pest or weed control at 80 g/ha (SETVI [8]): 100%
- pest or weed control at 20 g/ha (STEME [9]): 80%
- pest or weed control at 80 g/ha (STEME [9]): 90%
- pest or weed control at 20 g/ha (VERPE [10]; dosage 20 g/ha): 80%
- pest or weed control at 80 g/ha (VERPE [10]): 100%
- pest or weed control at 20 g/ha (VIOTR [11]): 80%
- pest or weed control at 80 g/ha (VIOTR [11]): 100%
- pest or weed control at 20 g/ha (DIGSA [12]): 90%
- pest or weed control at 80 g/ha (DIGSA [12]): 100%
- pest or weed control at 5 g/ha (ABUTH [13]): 100%
- pest or weed control at 20 g/ha (ABUTH [13]): 100%
- pest or weed control at 20 g/ha (ALOMY [14]): 100%
- pest or weed control at 20 g/ha (AMARE [15]): 100%
- pest or weed control at 20 g/ha (ECHCG [16]): 100%
- pest or weed control at 20 g/ha (HORMU): 100%
- pest or weed control at 20 g/ha (MATIN [17]): 100%
- pest or weed control at 20 g/ha (PHBPU [18]): 80%
- pest or weed control at 20 g/ha (SETVI [19]): 80%
- pest or weed control at 20 g/ha (STEME [20]): 100%
- pest or weed control at 5 g/ha (STEME [20]): 80%
- pest or weed control at 20 g/ha (VERPE [21]): 80%
- pest or weed control at 5 g/ha (VIOTR [22]; 5 g/ha): 100%
- pest or weed control at 20 g/ha (VIOTR [22]): 100%
- pest or weed control at 5 g/ha (DIGSA [23]): 90%
- pest or weed control at 20 g/ha (DIGSA [23]): 100%

SMILES: CNC(=O)c1c(C(F)F)ccc(C(=O)Nc2nnnn2C)c1SC [Example 1-87]
- pest or weed control at 80 g/ha (ABUTH [1]): 100%
- pest or weed control at 20 g/ha (ABUTH [1]; dosage 20 g/ha, scored visually after 3 weeks vs untreated controls, 100% = plants have died, 0% = like control plants, read-out: Pre-emergence action against ABUTH (herbicidal activity in percent)): 100%
- pest or weed control at 80 g/ha (ALOMY [2]): 90%
- pest or weed control at 20 g/ha (AMARE [3]): 90%
- pest or weed control at 80 g/ha (AMARE [3]): 100%
- pest or weed control at 80 g/ha (AVEFA [4]): 90%
- pest or weed control at 80 g/ha (ECHCG [5]): 100%
- pest or weed control at 80 g/ha (LOLRI): 80%
- pest or weed control at 20 g/ha (MATIN [6]): 80%
- pest or weed control at 80 g/ha (MATIN [6]): 90%
- pest or weed control at 80 g/ha (PHBPU [7]): 80%
- pest or weed control at 80 g/ha (POLCO): 90%
- pest or weed control at 80 g/ha (SETVI [8]): 100%
- pest or weed control at 20 g/ha (STEME [9]): 90%
- pest or weed control at 80 g/ha (STEME [9]): 100%
- pest or weed control at 80 g/ha (VERPE [10]): 90%
- pest or weed control at 20 g/ha (VIOTR [11]): 80%
- pest or weed control at 80 g/ha (VIOTR [11]): 100%
- pest or weed control at 20 g/ha (DIGSA [12]): 100%
- pest or weed control at 80 g/ha (DIGSA [12]): 100%
- pest or weed control at 5 g/ha (ABUTH [13]): 90%
- pest or weed control at 20 g/ha (ABUTH [13]): 90%
- pest or weed control at 20 g/ha (ALOMY [14]): 80%
- pest or weed control at 20 g/ha (AMARE [15]): 100%
- pest or weed control at 20 g/ha (AVEFA [24]): 80%
- pest or weed control at 5 g/ha (ECHCG [16]; dosage 5 g/ha): 80%
- pest or weed control at 20 g/ha (ECHCG [16]): 80%
- pest or weed control at 20 g/ha (HORMU): 80%
- pest or weed control at 20 g/ha (MATIN [17]): 80%
- pest or weed control at 5 g/ha (PHBPU [18]; dosage 5 g/ha): 80%
- pest or weed control at 20 g/ha (PHBPU [18]): 90%
- pest or weed control at 5 g/ha (SETVI [19]; dosage 5 g/ha): 80%
- pest or weed control at 20 g/ha (SETVI [19]): 90%
- pest or weed control at 20 g/ha (STEME [20]): 100%
- pest or weed control at 5 g/ha (STEME [20]): 80%
- pest or weed control at 5 g/ha (VERPE [21]; 5 g/ha): 80%
- pest or weed control at 20 g/ha (VERPE [21]): 90%
- pest or weed control at 20 g/ha (VIOTR [22]): 80%
- pest or weed control at 5 g/ha (DIGSA [23]): 100%
- pest or weed control at 20 g/ha (DIGSA [23]): 100%
